Reference: publication PMC6973281 (2019)

How the values were obtained:
[1] = tested on: 22AG (DNA, G4) AGGGTTAGGGTTAGGGTTAGGG; assay: spectrophotometric titration, independent-site fit; settings: K+ 73 mM; K-phosphate buffer pH 7.0, 5 % v/v DMSO, 20 °C; 5 μM compound; unit not given
[2] = tested on: 22AG (DNA, G4) AGGGTTAGGGTTAGGGTTAGGG; assay: spectrophotometric titration; settings: K+ 73 mM; K-phosphate buffer pH 7.0, 5 % v/v DMSO, 20 °C; 5 μM compound; isotherm could not be fitted

SMILES	K 22AG [1]	binding [2]
CCOC(=O)c1nc(/N=N/c2nc(C(=O)OCC)c(NCCCN(C)C)s2)sc1NCCCN(C)C	2.4×10^4	
CCOC(=O)c1csc(/N=N/c2nc(C(=O)OCC)c(NCCCN(C)C)s2)n1		weak
